Measurements published in patent US9730902B2, “Polyamine transport inhibitors as novel therapeutics” (University of Central Florida Research Foundation, Inc., priority 2009, dated 2017).
Entries after “also recorded” stand apart in the source; their conditions may differ.

Assays:
SW620 cells = assay: cells; conditions: for Relative viability: human, 72 h
Procedure: The first assay implements the growth of mammalian cells in a 96 well plate format on tissue culture plates.
1.) The media contains a maximum of 2 mM aminoguanidine and a minimum of 0.25 mM aminoguanidine to prevent a cell culture artifact (i.e., degradation of native polyamines and PTI structures that contain terminal amine structures (e.g., trimer 3c) by bovine serum amine oxidases present in the cell culture media). As a general rule, aminoguanidine (AG) is not dosed at a concentration which induces 20% or more cytostasis in the cell line examined. This minimizes AG side-effects. All of the following treatments are begun 24 hours after seeding the cells.
3.) The maximum tolerated dose (MTD) of the PTI is determined by titrating it without the presence of DFMO or polyamine. The MTD is defined as the maximum concentration of the drug (e.g., PTI) that is shown to keep 100% of the cell population alive compared to the control ±10%.
(§1) This is defined as the “MTD under DFMO treatment.”
6.) The combination of DFMO, polyamine, and PTI are treated concomitantly after 24 hours of growth in a 96-well tissue culture treated plate. The duration of treatment is determined by step 2 for all three reagents. The concentration of DFMO is determined in step 2, the concentration of polyamine is determined in step 4 and the concentration of PTI is determined by step 3, the MTD. Note if the MTD of the PTI is altered by the presence of DFMO then the “MTD under DFMO treatment” is used as determined in step 6. The untreated control cells, DFMO only treatment, and DFMO+polyamine treatment, must be shown on the same plate as the experimental samples with PTI to ensure that these controls are working properly.
The first assay measures the ability of the new transport inhibitors to block rescue of DFMO-treated cells by putrescine (a native polyamine).

[1] = test system: MiaPaca-2 pancreatic cancer; assay: Block of putrescine rescue of DFMO-treated cells; type: cell-based, human
Procedure: The MTD under DFMO treatment of 3c in this cell line is 1 μM and as such the therapy became toxic at 2 μM. If the therapy is not toxic to normal cells, then this therapy is also valid for concentrations above 1 μM. All treatments (DFMO, putrescine, and 3c) were dosed simultaneously and for a duration of 96 hours.

CHO-K1 cells = assay: Block of uptake of cytotoxic PAT probe Ant44 (cell rescue); type: cell-based, Chinese hamster; conditions: for PAT inhibition: block of uptake of Ant44 at non-toxic concentrations; for rescue of cells from Ant44: inhibitor at 0.1 uM; for toxicity of inhibitor to cells: inhibitor at 100 uM in the presence of Ant44 (0.5 uM)
Procedure: FIG. 6. In CHO-K1 cells, cytotoxic compound Ant44 was dosed at 0.5 μM in the presence of 2 mM aminoguanidine and either Triamide 5c or Trimer 3c at varying concentrations then incubated for 48 hours. […] Note: 5c was able to rescue the CHO cells from Ant44 but required a higher dose of 5c (1 uM). Note: […] Note that all experiments performed contained a maximum of 2 mM aminoguanidine to prevent break-down of polyamine analogues in the serum. This cell culture artifact only arises due to bovine copper-dependent serum amine oxidases which are not present in humans and are therefore not of a concern. […] This is reflective upon their low Ki values observed in L1210 cells (Phanstiel reference).
FIG. 7. In CHO-K1 cells, the PAT-selective cytotoxic agent Ant44 was dosed at 0.5 μM in the presence of Trimer 3c at varying concentrations (in nM) and incubated for 48 hours. Note that 2 mM aminoguanidine was added to the media to blockade degradation by serum amine oxidases.
In this manner, the PTI (e.g. 1 uM) dosed at completely non-toxic concentrations was able to block the uptake of the toxic Ant44 compound (Ant44 dosed at its IC50 value, 0.5 uM). […] These experiments (FIGS. 6 and 7) were done in Chinese hamster ovary cells (CHO-K1) cells.

[2] = test system: L3.6pl metastatic pancreatic cancer; assay: Block of putrescine rescue of DFMO-treated cells; type: cell-based, human
Procedure: The MTD of 3c in this cell line is 5 μM. All treatments (DFMO, putrescine, and 3c) were dosed simultaneously and for a duration of 72 hours.
The MTD of 3c in this cell line is 5 μM. All treatments (DFMO, putrescine, and 3c) were dosed simultaneously and for a duration of 48 hours.

[3] = test system: MiaPaca-2 pancreatic cancer; assay: MTD under DFMO treatment; type: cell-based
Description: as §1

[4] = test system: L3.6pl metastatic pancreatic cancer; assay: Maximum tolerated dose (MTD) of the PTI; type: cell-based; conditions: L3.6pl cell line
L3.6pl cells = assay: Block of spermidine rescue of DFMO-treated cells; type: cell-based, human
Procedure: FIG. 3 is a chart showing the block of spermidine rescue by trimer in a does dependent fashion in L3.6pl cells. […] This minimizes AG side-effects. […] The second assay measures the ability of the new transport inhibitor (the trimer 3c) to block rescue of DFMO-treated cells by spermidine. […] As shown below, the L3.6pl cells were dosed with 5 mM DFMO, which reduced their viability during the 48 hour incubation period to 60% of the control growth without DFMO (2nd column). However, these cells were rescued by the addition of exogenous spermidine (0.5 µM, 3rd column). […] However, in the presence of the trimer (i.e., the polyamine transport inhibitor 3c) we were able to block this rescue effect of spermidine (Spd) in a dose-dependent fashion (3c: 0.1 to 5 µM). For example, 3c at 2 µM in the presence of DFMO (5 mM)+spermidine (0.5 µM) gave 60% viability (7th column). Without the presence of the trimer, spermidine rescues the cells and one observes >90% viability (3rd column). The resulting data is in Table 1 and FIG. 3.

import of putrescine = assay: Selectivity of blocking import of native polyamines; type: cell-based; conditions: putrescine versus spermidine and spermine, at the dosage used
RKO = assay: Response of cell growth to DFMO; type: cell-based
HCT-116 = assay: Response of cell growth to DFMO; type: cell-based
SW480 = assay: Response of cell growth to DFMO; type: cell-based
Panc-1 = assay: Response of cell growth to DFMO; type: cell-based

NCCCCNCCCCNCc1cc(CNCCCCNCCCCN)cc(CNCCCCNCCCCN)c1 [3c, N-(4-Amino-butyl)-N′-(3,5-bis-{[4-(4-amino-butylamino)-butylamino]-methyl}-benzyl)-butane-1,4-diamine]
Relative viability (SW620 cells; 0.1 uM): 100% | Relative viability (SW620 cells; 0.5 uM): 75% | treatment effect ([1]; 0.5 μM of 3c, 0.5 μM of putrescine, DFMO, 96 hours): incomplete but effective treatment | concentration from which treatment is effective ([1]; competing with 0.5 μM of putrescine, with DFMO, 96 hours): 1 µM | concentration able to protect CHO-K1 cells from Ant44 (CHO-K1 cells; Ant44 0.5 uM, 2 mM aminoguanidine, 48 hours, further titration): 80 nM | PAT inhibition (CHO-K1 cells): potent PAT inhibitors | rescue of cells from Ant44 (CHO-K1 cells; Ant44 0.5 uM, 48 hours): complete rescue | toxicity of inhibitor to cells (CHO-K1 cells): moderate toxicity | concentration from which treatment is effective ([2]; competing with 0.5 μM of putrescine, 48 hours): 0.5 µM | concentration from which treatment is effective ([2]; competing with 1 μM of putrescine, 72 hours): 1 µM | MTD under DFMO treatment ([3]; MiaPaca-2, 96 hours): 1 µM | concentration at which the therapy became toxic ([3]; MiaPaca-2, with DFMO, 96 hours): 2000 nM | MTD [4]: 5 µM | % Viability (L3.6pl cells; 5 mM DFMO + 0.5 uM Spd + trimer 0.1, 48 hour): 90% | % Viability (L3.6pl cells; 5 mM DFMO + 0.5 uM Spd + trimer 0.5, 48 hour): 88% | % Viability (L3.6pl cells; 5 mM DFMO + 0.5 uM Spd + trimer 1, 48 hour): 73% | % Viability (L3.6pl cells; 5 mM DFMO + 0.5 uM Spd + trimer 2, 48 hour): 60% | % Viability (L3.6pl cells; 5 mM DFMO + 0.5 uM Spd + trimer 3, 48 hour): 53% | % Viability (L3.6pl cells; 5 mM DFMO + 0.5 uM Spd + trimer 5, 48 hour): 45%

NCCCCNCCCCNC(=O)c1cc(C(=O)NCCCCNCCCCN)cc(C(=O)NCCCCNCCCCN)c1 [5c, Benzene-1,3,5-tricarboxylic acid tris-{[4-(4-amino-butylamino)-butyl]-amide}]
dose required to rescue the CHO cells from Ant44 (CHO-K1 cells; Ant44 0.5 uM, 48 hours): 1 µM | PAT inhibition (CHO-K1 cells): potent PAT inhibitors | rescue of cells from Ant44 (CHO-K1 cells; Ant44 0.5 uM, 48 hours): unable to rescue | toxicity of inhibitor to cells (CHO-K1 cells): moderate toxicity | selectivity of blocking import of native polyamines (import of putrescine): selectively blocks import of putrescine; also recorded: specific for putrescine

NCCCCNCCCCNCc1c2ccccc2cc2ccccc12 [Ant44, anthracen-9-ylmethyl-homospermidine conjugate, reference compound]
viability relative to untreated CHO-K1 cells (CHO-K1 cells; Ant44 0.5 uM without PAT inhibitor, 2 mM aminoguanidine, 48 hours): 40% | IC50 (CHO-K1 cells; cytotoxicity of Ant44, CHO-K1): 500 nM

NCCCCN [Putrescine, putrescine, reference compound]
viability at 1 µM (SW620 cells; Homo sapiens, SW-620, 72 h, read-out: Relative viability): 100%

NCCCCNCCCN [spermidine, reference compound]
% Viability (L3.6pl cells; 5 mM DFMO + 0.5 uM Spd, no trimer, 48 hour): > 90% | % Viability (L3.6pl cells; 5 mM DFMO + 0.5 uM Spd, no trimer, 48 hour, listed as Spd): 91%

difluoromethylornithine [DFMO]
reduction in growth (SW620 cells; DFMO (1 mM), MTS assay): 50% | response to DFMO (RKO): respond to DFMO in a time dependent matter | DFMO reduction in cell growth ([1]; 48, 72 and 96 hours): time dependent | response to DFMO (HCT-116): respond to DFMO in a time dependent matter | response to DFMO (SW480): respond to DFMO in a time dependent matter | response to DFMO (Panc-1): respond to DFMO in a time dependent matter
